In US6545032B1, “Synthesis of [3,5,7]-H-imidazo[1,5-a] imidazol-2(3H)-one compounds” (Torrey Pines Institute for Molecular Studies, priority 1999, dated 2003):

Key:
kappa opiate receptor = biological target: T1, kappa opiate receptor (Cavia porcellus, UniProt P41144); assay: Inhibition of tritiated U69,593 binding to the kappa opiate receptor in guinea pig brain homogenates; set-up: Mean: unit not given beside the values; settings: 3 nm tritiated U69,593, guinea pig brain membranes; for % Bound: [3H]U69,593 bound; for % Inhibition: inhibition of [3H]U69,593 binding; for Mean: mean bound radioactivity of [3H]U69,593, 2.5 hours 25° C.; for Minus NSB: mean minus non-specific binding
T1 construct: guinea pig cortices and cerebella were homogenized in 40 mL of Buffer A; from tissue; host or cells: guinea pig cortices and cerebella, crude membrane suspension
Protocol: The above-prepared library of individual compounds was screened for the ability to inhibit the binding of tritiated Compound U69,593 that is known to bind specifically to the kappa opiate receptor present in guinea pig brain homogenates following literature procedures. [Dooley et al., J. Biol. Chem., 273(30) 18848-18856 (1998)]
Briefly, guinea pig cortices and cerebella were homogenized in 40 mL of Buffer A [50 mM Tris-HCl, pH 7.4] at 4° C. Homogenates were centrifuged [Beckman® J2-HC, 35, 300×g] for 10 minutes. The pellets were resuspended in fresh buffer and incubated at 37° C. for 40 minutes. Following incubation, the suspensions were centrifuged as before, the resulting pellets resuspended in 100 volumes of Tris buffer, and the suspensions combined. Membrane suspensions were prepared and used on the same day. Protein content of the crude homogenates was determined by the method of Bradford, Anal. Biochem., 72:248-252 (1976).
Each assay tube contained 0.5 mL of membrane suspension, 3 nm of tritiated Compound U69,593 [(5a,7a,8b)-(−)-N-methyl-N-(7-(1-pyrrolidinyl)-1-oxaspiro(4,5)dec-8-yl)-benzeneacetamide; Lahti et al., European J. Pharmacol., 109:281-284(199-85)] in a total volume of 0.65 mL. Assay tubes were incubated for 2.5 hours a 25° C. The assay was then filtered through GF-B filters on a Tomec™ harvester (Orange, Conn.). The filters were subsequently washed with 6 mL of 50 mM Tris-HC1, pH 7.4 at 4° C. Bound radioactivity was counted on a Wallace™ Beta-plate Liquid Scintillation Counter (Piscataway, N.J.). Unlabeled U50, 488 [(trans-(dl)-3,4-dichloro-N-methyl-N-[2-(1-pyrrolidinyl)cyclohexyl]-benzeneacetamide) methane sulfonate hydrate; Lahti et al., Life Sci., 31:2257-xx(1982) and Von Voightlander et al., J. Pharmacol. Exp. Ther., 224:7 (1983)] was used as a competitive inhibitor to generate a standard curve and determine nonspecific binding. The results of these assays are shown in the table, below, wherein the “R” groups are as discussed for Example 1.

mu opiate receptor = biological target: T2, mu opiate receptor (Rattus norvegicus, UniProt P33535); assay: Inhibition of [3H]DAMGO binding to the mu opiate receptor in rat brain homogenates; set-up: Mean: unit not given beside the values; settings: 0.08 mg of compound per milliliter, 7 nM 3H-labeled DAMGO, rat brain membranes; for % Bound: [3H]DAMGO bound; for Mean: mean bound radioactivity of [3H]DAMGO; for Minus NSB*: mean minus non-specific binding; for % Inhibition: percent inhibition of DAMGO binding
T2 construct: from tissue; host or cells: rat brain membranes/homogenate
Protocol: The previously prepared [3,5,7]-1H-imidazo[1,5-a]-imidazol-2(3H)-one library of individual compounds was screened for the ability to inhibit the binding of [^3H] [D-Ala^2,MePhe^4,Gly^5-ol]enkephalin (DAMGO) that is known to bind specifically to the mu opiate receptor present in rat brain homogenates following literature procedures. [Dooley et al., Science, 266:2019(1994); U.S. Pat. No. 5,763,193.]
Preparation of rat brain membranes and the receptor binding assay were carried out as described in Dooley et al., Life Sci., 52:1509(1993). Each tube in the screening assay contained 0.08 mg of compound mixture per milliliter, 0.5 mL of membrane suspension (0.1 mg of protein), 7 nM ^3H-labeled DAMGO [specific activity 36 Ci/mmol, obtained from the National Institute on Drug Abuse (NIDA) repository through Chiron Mimotopes PeptideSystems (San Diego, Calif.) and […] of peptide mixture in 50 mM Tris-HCl buffer (pH 7.4). The final volume was 0.65 mL. The results of these screenings are shown in the table, below, wherein the “R” groups are as discussed for Example 1. The results are reported as percent inhibition of DAMGO binding.

T1 sequence (P41144 whole entry): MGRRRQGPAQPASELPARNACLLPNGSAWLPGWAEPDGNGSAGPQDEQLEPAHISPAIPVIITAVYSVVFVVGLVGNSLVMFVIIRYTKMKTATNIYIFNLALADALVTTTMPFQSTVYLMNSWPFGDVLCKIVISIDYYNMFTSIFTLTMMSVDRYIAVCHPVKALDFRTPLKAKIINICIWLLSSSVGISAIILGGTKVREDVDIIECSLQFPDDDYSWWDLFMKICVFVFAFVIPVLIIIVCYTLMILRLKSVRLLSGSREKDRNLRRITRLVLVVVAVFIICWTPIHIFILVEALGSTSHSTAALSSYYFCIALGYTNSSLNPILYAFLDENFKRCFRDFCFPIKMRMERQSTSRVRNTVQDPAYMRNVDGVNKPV
T2 sequence (P33535 whole entry): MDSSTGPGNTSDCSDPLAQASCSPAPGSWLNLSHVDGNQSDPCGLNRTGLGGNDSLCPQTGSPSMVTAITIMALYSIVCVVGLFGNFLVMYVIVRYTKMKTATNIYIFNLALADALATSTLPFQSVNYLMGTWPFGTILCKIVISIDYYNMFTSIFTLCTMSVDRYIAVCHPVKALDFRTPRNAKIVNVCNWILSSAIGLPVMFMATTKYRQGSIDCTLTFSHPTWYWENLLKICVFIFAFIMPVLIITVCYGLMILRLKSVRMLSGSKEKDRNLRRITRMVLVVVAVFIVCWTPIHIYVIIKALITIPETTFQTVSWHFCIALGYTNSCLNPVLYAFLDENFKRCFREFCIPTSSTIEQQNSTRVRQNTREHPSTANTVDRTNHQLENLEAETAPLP

| SMILES | % Bound (kappa opiate receptor) | % Inhibition (kappa opiate receptor) | Mean (kappa opiate receptor) | Minus NSB (kappa opiate receptor) | % Bound (mu opiate receptor) | Mean (mu opiate receptor) | Minus NSB* (mu opiate receptor) | % Inhibition (mu opiate receptor) |
| --- | --- | --- | --- | --- | --- | --- | --- | --- |
| CC(C)c1nc(CCCc2ccccc2)n2c1NC(=O)C2C(C)C (racemic) [Pool 113] | 61.597% | 38.403% | 1545.15 | 638.15 | 43% | 716.3 | 408.30 | 57% |
| CCCCC1C(=O)Nc2c(C(C)C)nc(C)n21 (stereo not drawn) [Pool 11] | 80.034% | 19.966% | 1736.15 | 829.15 | 47% | 756.05 | 448.05 | 53% |
| CC(C)c1nc(C(C)C)n2c1NC(=O)C2C(C)C (racemic) [Pool 123] | 57.124% | 42.876% | 1498.8 | 591.80 | 55% | 832.5 | 524.50 | 45% |
| Cc1nc(CCCCN)c2n1C(C(C)C)C(=O)N2 (stereo not drawn) [Pool 41] | 51.853% | 48.147% | 1444.2 | 537.20 | 58% | 858.1 | 550.10 | 42% |
| CCC(C)Cc1nc(C(C)C)c2n1C(C(C)C)C(=O)N2 (stereo not drawn) [Pool 126] | 73.311% | 26.689% | 1666.5 | 759.50 | 64% | 918.7 | 610.70 | 36% |
| CC(C)c1nc(Cc2ccc(Cl)c(Cl)c2)n2c1NC(=O)C2C(C)C (racemic) [Pool 81] | 89.223% | 10.777% | 1831.35 | 924.35 | 71% | 988.3 | 680.30 | 29% |
| COc1ccc(Cc2nc(C(C)C)c3n2C(C(C)C)C(=O)N3)cc1OC (racemic) [Pool 87] | 81.337% | 18.663% | 1749.65 | 842.65 | 59% | 870.35 | 562.35 | 41% |
| Cc1nc(CCCNC(=N)N)c2n1C(C(C)C)C(=O)N2 (stereo not drawn) [Pool 42] | 48.200% | 51.800% | 1406.35 | 499.35 | 29% | 581.65 | 273.65 | 71% |
| CC(C)c1nc(CC23CC4CC(CC(C4)C2)C3)n2c1NC(=O)C2C(C)C (stereo not drawn) [Pool 156] | 78.803% | 21.197% | 1723.4 | 816.40 | 65% | 925.85 | 617.85 | 35% |
| CSCCc1nc(C)n2c1NC(=O)C2C(C)C (racemic) [Pool 59] | 78.953% | 21.047% | 1724.95 | 817.95 | 59% | 874.75 | 566.75 | 41% |
| Cc1nc(C(C)C)c2n1C(CC(C)C)C(=O)N2 (stereo not drawn) [Pool 20] | 68.996% | 31.004% | 1621.8 | 714.80 | 50% | 787.6 | 479.60 | 50% |
| CC(C)c1nc(Cc2ccc(-c3ccccc3)cc2)n2c1NC(=O)C2C(C)C (racemic) [Pool 84] | 69.624% | 30.376% | 1628.3 | 721.30 | 57% | 850.4 | 542.40 | 43% |
| CC(C)c1nc(C2CCCC2)n2c1NC(=O)C2C(C)C (stereo not drawn) [Pool 145] | 61.501% | 38.499% | 1544.15 | 637.15 | 71% | 986.9 | 678.90 | 29% |
| Cc1nc(C)n2c1NC(=O)C2C(C)C (stereo not drawn) [Pool 35] | 77.693% | 22.307% | 1711.9 | 804.90 | 47% | 753.5 | 445.50 | 53% |
| Cc1nc(Cc2ccc(O)cc2)c2n1C(C(C)C)C(=O)N2 (racemic) [Pool 64] | 61.631% | 38.369% | 1545.5 | 638.50 | 42% | 710.9 | 402.90 | 58% |
| CCC(CC)c1nc(C(C)C)c2n1C(C(C)C)C(=O)N2 (stereo not drawn) [Pool 157] | 54.638% | 45.362% | 1473.05 | 566.05 | 65% | 930.35 | 622.35 | 35% |
| Cc1nc(CO)c2n1C(C(C)C)C(=O)N2 (stereo not drawn) [Pool 39] | 78.827% | 21.173% | 1723.65 | 816.65 |  |  |  |  |
